Patent US8063095B2, “IAP BIR domain binding compounds” (Pharmascience Inc., priority 2005, dated 2011)
pEC50, pIC50, pKi: −log10 of the molar value.

Key:
[1] = molecular target: T1, XIAP L-Bir2-Bir3 (GST-XIAP Linker Bir2Bir3RING fusion protein) (Homo sapiens, UniProt P98170); test: Caspase de-repression assay using cellular extracts (apoptosome), L-Bir2-Bir3 XIAP; format: biochemical; conditions: 293 cell S100 extract; effective concentration to achieve 50% of activation
T1 construct: made in house; host or cells: E. coli DH5-alpha
T1 sequence (P98170 93-497): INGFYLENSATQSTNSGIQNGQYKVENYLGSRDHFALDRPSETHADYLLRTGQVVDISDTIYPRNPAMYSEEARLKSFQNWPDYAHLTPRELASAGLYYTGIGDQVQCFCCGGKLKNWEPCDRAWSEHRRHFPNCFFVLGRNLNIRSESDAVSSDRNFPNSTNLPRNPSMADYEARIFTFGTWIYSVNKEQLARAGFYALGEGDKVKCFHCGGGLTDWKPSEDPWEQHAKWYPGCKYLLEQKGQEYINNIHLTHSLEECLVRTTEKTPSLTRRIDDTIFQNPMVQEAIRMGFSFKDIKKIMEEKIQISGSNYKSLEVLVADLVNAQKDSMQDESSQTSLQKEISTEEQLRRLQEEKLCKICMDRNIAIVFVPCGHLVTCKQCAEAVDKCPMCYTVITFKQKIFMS
Experimental: GST-linker BIR2BIR3Ring: XIAP coding sequence from amino acids 93-497 cloned into PGex4T1 via BamH1 and XhoI. Amino acids 93-497 were amplified from full length XIAP in pGex4t3, using the primers: […] and GCTGCATGTGTGTCAGAGG, using standard PCR conditions. The PCR fragment was TA cloned into pCR-2.1 (invitrogen). Linker BIR2BIR3Ring was subcloned into pGex4T1 by BamHI/XhoI digestion. The plasmid was transformed into E. coli DH5α for use in protein expression and purification. […]
100 ug of 293 cell S100 extract and 0.25 uM-2 uM of GST-XIAP fusion protein (XIAP-Bir3RING, XIAP-Linker Bir2Bir3RING, or full-length XIAP) were co-incubated with serial dilutions of compound (40 uM-5 pM). Caspases present in the extracts were activated by adding 1 mM dATP, 0.1 mM ALLN, 133 ug Cytochrome C (final concentrations), and incubating at 37° C. for 25 minutes. All reactions and dilutions used S100 buffer (50 mM Pipes pH 7.0, 50 mM KCl, 0.5 mM EGTA pH 8.0, 2 mM MgCl2 supplemented with 1/1000 dilutions of 2 mg/ml Cytochalisin B, 2 mg/ml Chymotstatin, Leupeptin, Pepstatin, Antipain, 0.1M PMSF, 1M DTT). Final reaction volume was 30 ul. Caspase-3 activity was measured by overlaying 30 ul of a 0.4 mM DEVD-AMC solution. released AMC cleavage was measured in a TECAN spectrophotometer at 360 nm excitation and 444 nm emission, on a kinetic cycle of 1 hour with readings taken every 5 minutes. Caspase activity was calculated as Vo of AMC fluorescence/sec. Caspase de-repression by our compounds was compared to fully activated extract and activated extract repressed by the presence of XIAP fusion protein.

[2] = molecular target: T2, XIAP bir3 domain (GST-XIAP BIR3RING) (Homo sapiens, UniProt P98170); test: Fluorescence polarization-based competition assay, XIAP; format: binding; conditions: Ki calculated from displacement of fluorescent probe; read-out: Fluorescent polarization (FP) assay Xiap
T2 construct: made in house; host or cells: E. coli DH5-alpha
T2 sequence (P98170 246-497): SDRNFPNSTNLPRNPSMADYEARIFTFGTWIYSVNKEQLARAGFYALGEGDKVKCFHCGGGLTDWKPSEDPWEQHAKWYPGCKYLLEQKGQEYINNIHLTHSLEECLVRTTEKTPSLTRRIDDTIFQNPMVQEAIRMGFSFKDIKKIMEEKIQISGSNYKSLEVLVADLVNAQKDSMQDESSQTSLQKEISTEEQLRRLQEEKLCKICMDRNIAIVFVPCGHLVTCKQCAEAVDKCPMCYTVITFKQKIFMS
Experimental: GST-XIAP BIR3RING: XIAP coding sequence amino acids 246-497 cloned into PGEX2T1 via BamH1 and AVA I. The plasmid was transformed into E. coli DH5a for use in protein expression and purification.
(§1) A fluorescent peptide probe, Fmoc-Ala-Val-Pro-Phe-Tyr(t-Bu)-Leu-Pro-[…]-Gly-OH was prepared using standard Fmoc chemistry on 2-chlorotrityl chloride resin (Int. J. Pept. Prot. Res. 38:555-561, 1991). Cleavage from the resin was performed using 20% acetic acid in dichloromehane (DCM), which left the side chain still blocked. The C-terminal protected carboxylic acid was coupled to 4′-(aminomethy)fluorescein (Molecular Probes, A-1351; Eugene, Oreg.) using excess diisopropylcarbodiimide (DIC) in dimethylformamide (DMF) at room temperature and was purified by silica gel chromatography (10% methanol in DCM). The N-terminal Fmoc protecting group was removed using piperidine (20%) in DMF, and purified by silica gel chromatography (20% methanol in DCM, 0.5% HOAc). Finally, the t-butyl side chain protective groups were removed using 95% trifluoroacetic acid containing 2.5% water and 2.5% triisopropyl silane.
(§2) For all assays, the fluorescence and fluorescence-polarization was evaluated using a Tecan Polarion instrument with the excitation filter set at 485 nm and the emission filter set at 535 nm. For each assay, the concentration of the target protein was first establish by titration of the selected protein in order to produce a linear dose-response signal when incubated alone in the presence of the fluorescent probe. Upon establishing these conditions, the compounds potency (IC50) and selectivity, was assessed in the presence of a fix defined amount of target protein and fluorescent probe and a 10 point serial dilution of the selected compounds. For each IC50 curve, the assays were run as followed: 25 ul/well of diluted compound in 50 mM MES buffer pH 6.5 were added into a black 96 well plate then 25 ul/well of bovine serum albumin (BSA) at 0.5 mg/ml in 50 mM MES pH 6.5. Auto-fluorescence for each compound was first assessed by performing a reading of the compound/BSA solution alone. Then 25 ul of the fluorescein probe diluted into 50 mM MES containing 0.05 mg/ml BSA were added and a reading to detect quenching of fluorescein signal done. Finally 25 ul/well of the target or control protein (GST-BIRs) diluted at the appropriate concentration in 50 mM MES containing 0.05 mg/ml BSA were added and the fluorescence polarization evaluated.
(§3) For each assay the relative polarization-fluorescence units were plotted against the final concentrations of compound and the IC50 calculated using the Grad pad prism software and/or Cambridge soft. The ki value were derived from the calculated IC50 value as described above and according to the equation described in Nikolovska-Coleska, Z. (2004) Anal Biochem 332, 261-273.

[3] = molecular target: T3, cIAP-1 bir3 domain (GST-HIAP2 (cIAP-1) BIR3) (Homo sapiens, UniProt Q13490); test: Fluorescence polarization-based competition assay, cIAP-1; format: binding; conditions: Ki calculated from displacement of fluorescent probe; read-out: Fluorescent polarization (FP) assay cIAP-1
T3 construct: made in house; host or cells: E. coli DH5-alpha
T3 sequence (Q13490 251-363): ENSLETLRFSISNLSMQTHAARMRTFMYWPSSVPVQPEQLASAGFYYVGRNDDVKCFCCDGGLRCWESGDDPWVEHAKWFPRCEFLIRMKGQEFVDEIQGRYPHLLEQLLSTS
Experimental: GST-HIAP2 (cIAP-1) BIR3: HIAP2 coding sequence from amino acids 251-363 cloned into PGex4T3 via BamH1 and XhoI. The plasmid was transformed into E. coli DH5α for use in protein expression and purification.
as §1, §2, §3

[4] = molecular target: T4, cIAP-2 bir3 domain (GST-HIAP1(cIAP-2) BIR3) (Homo sapiens, UniProt Q13489); test: Fluorescence polarization-based competition assay, cIAP-2; format: binding; conditions: Ki calculated from displacement of fluorescent probe; read-out: Fluorescent polarization (FP) assay cIAP-2
T4 construct: made in house; host or cells: E. coli DH5-alpha
T4 sequence (Q13489 236-349): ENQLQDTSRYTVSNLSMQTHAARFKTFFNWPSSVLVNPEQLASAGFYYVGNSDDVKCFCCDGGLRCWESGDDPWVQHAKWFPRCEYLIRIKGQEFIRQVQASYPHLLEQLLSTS
Experimental: GST-HIAP1(cIAP-2) BIR3: HIAP1 coding sequence from amino acids 236-349, cloned into PGex4T3 via BamH1 and XhoI. The plasmid was transformed into E. coli DH5α for use in protein expression and purification.
as §1, §2, §3

[5] = system: MDA-MB-231 (breast) cancer cells; test: Cell viability (MTT) assay, MDA cells; conditions: Homo sapiens, MTT based assay
Experimental: (§4) MDA-MD-231 (breast) and SKOV-3 (ovarian) cancer cells were cultured in RPMI1640 media supplemented with 10% FBS and 100 units/mL of Penicillin and Steptomycin.
(§5) Viability assays were done on a number of cells including MDA-MB-231, SKOV-3, H460, PC3, HCT-116, and SW480 cells. Cells were seeded in 96 well plates at a respective density of 5000 and 2000 cells per well and incubated at 37° C. in presence of 5% CO2 for 24 hours. Selected compounds were diluted into the media at various concentration ranging from 0.01 uM up to 100 uM. Diluted compounds were added onto the MDA-MB-231 cells. For the MDA-MB-231 SKOV3, H460, PC3, HCT-116, and SW480 cells, the compounds were added either alone or in presence of 1-3 ng/ml of TRAIL. After 72 hours cellular viability was evaluated by MTT based assays.

[6] = system: SKOV-3 (ovarian) cancer cells; test: Cell viability (MTT) assay, SKOV3 cells; conditions: 72 hours, MTT based assay; compounds added either alone or in presence of 1-3 ng/ml of TRAIL
Experimental: as §4, §5

Structure (SMILES)	pEC50 [6]	pIC50 [1]	pKi [2]	pEC50 ([5]; MDA-MB-231, 72 hours)	also measured
CN[C@@H](C)C(=O)N[C@H](C(=O)N1CCC[C@H]1CN(CCc1ccccc1)C(=O)[C@H](N)Cc1ccc(OC)cc1)[C@@H](C)OCC#CC#CCO[C@H](C)[C@H](NC(=O)[C@H](C)NC)C(=O)N1CCC[C@H]1CN(CCc1ccccc1)C(=O)[C@H](N)Cc1ccc(OC)cc1 [Compound 2]	–	≥ 7.00	≥ 7.00	> 7.00	pKi [3]: ≥ 7.00; pKi [4]: ≤ 7.00
CN[C@@H](C)C(=O)N[C@H](C(=O)N1CCC[C@H]1CN(CCc1ccccc1)S(C)(=O)=O)[C@@H](C)OCC#CC#CCO[C@H](C)[C@H](NC(=O)[C@H](C)NC)C(=O)N1CCC[C@H]1CN(CCc1ccccc1)S(C)(=O)=O [Compound 8]	–	≥ 6.30	≥ 8.30	–	pEC50 ([5]; MDA-MB-231, 72 h): > 7.00
CN[C@@H](C)C(=O)N[C@@H](COC(=O)c1ccc(C(=O)OC[C@H](NC(=O)[C@H](C)NC)C(=O)N2CCC[C@H]2CN(CCc2ccccc2)C(=O)c2ccccc2)cc1)C(=O)N1CCC[C@H]1CN(CCc1ccccc1)C(=O)c1ccccc1 [Compound 14]	–	–	≥ 7.00	–	pEC50 ([5]; MDA-MB-231, 72 h): > 6.00
CN[C@@H](C)C(=O)NC(CCCNC(=O)c1ccc(C(=O)NCCC[C@H](NC(=O)[C@H](C)NC)C(=O)N2CCC[C@H]2C(=O)N[C@@H]2CCCc3ccccc32)cc1)C(=O)N1CCC[C@H]1CN(CCc1ccccc1)C(=O)C(F)(F)F (stereo partly drawn) [Compound 38]	> 7.00	–	–	–	–
CN[C@@H](C)C(=O)N[C@@H](CCCNC(=O)CCCCC(=O)NCCC[C@H](NC(=O)[C@H](C)NC)C(=O)N1CCC[C@H]1CN(CCc1ccccc1)S(=O)(=O)c1ccc(F)cc1)C(=O)N1CCC[C@H]1CN(CCc1ccccc1)S(=O)(=O)c1ccc(F)cc1 [Compound 44]	> 6.00	–	–	–	–
CN[C@@H](C)C(=O)N[C@@H](COC(=O)CCCCCC(=O)OC[C@H](NC(=O)[C@H](C)NC)C(=O)N1CCC[C@H]1CN(CCc1ccccc1)C(=O)c1ccccc1)C(=O)N1CCC[C@H]1CN(CCc1ccccc1)C(=O)c1ccccc1 [Compound 13]	–	–	≥ 7.00	–	pEC50 ([5]; MDA-MB-231, 72 h): > 6.00
CN[C@@H](C)C(=O)N[C@H](C(=O)N1CCC[C@H]1CN(CCc1ccccc1)C(=O)OCc1ccccc1)[C@@H](C)OCC#CC#CCO[C@H](C)[C@H](NC(=O)[C@H](C)NC)C(=O)N1CCC[C@H]1CN(CCc1ccccc1)C(=O)OCc1ccccc1 [Compound 7]	–	≥ 6.30	≥ 7.00	> 7.00	–
CN[C@@H](C)C(=O)N[C@H](C(=O)N1CCC[C@H]1CN(CCc1ccccc1)S(=O)(=O)c1ccccc1)[C@@H](C)OCC#CC#CCO[C@H](C)[C@H](NC(=O)[C@H](C)NC)C(=O)N1CCC[C@H]1CN(CCc1ccccc1)S(=O)(=O)c1ccccc1 [Compound 4]	–	≥ 6.30	≥ 8.30	> 7.00	–
CN[C@@H](C)C(=O)N[C@H](C(=O)N1CCC[C@H]1CN(CCc1ccccc1)S(C)(=O)=O)[C@@H](C)OCCCCCCO[C@H](C)[C@H](NC(=O)[C@H](C)NC)C(=O)N1CCC[C@H]1CN(CCc1ccccc1)S(C)(=O)=O [Compound 37]	> 7.00	–	–	–	–
CN[C@@H](C)C(=O)N[C@@H](COCc1ccc(-c2ccc(COC[C@H](NC(=O)[C@H](C)NC)C(=O)N3CCC[C@H]3CN(CCc3ccccc3)C(=O)C(F)(F)F)cc2)cc1)C(=O)N1CCC[C@H]1CN(CCc1ccccc1)C(=O)C(F)(F)F [Compound 12]	–	≤ 6.00	≤ 7.00	> 7.00	pKi [3]: ≥ 7.00; pKi [4]: ≥ 8.30
CN[C@@H](C)C(=O)N[C@@H](COCc1ccc(COC[C@H](NC(=O)[C@H](C)NC)C(=O)N2CCC[C@H]2CN(CCc2ccccc2)C(=O)C(F)(F)F)cc1)C(=O)N1CCC[C@H]1CN(CCc1ccccc1)C(=O)C(F)(F)F [Compound 11]	–	≤ 6.00	–	–	pKi [4]: ≤ 7.00; pEC50 ([5]; MDA-MB-231, 72 h): > 7.00
CN[C@@H](C)C(=O)N[C@H](C(=O)N1CCC[C@H]1CN(CCc1ccccc1)S(=O)(=O)Cc1ccccc1)[C@@H](C)OCC#CC#CCO[C@H](C)[C@H](NC(=O)[C@H](C)NC)C(=O)N1CCC[C@H]1CN(CCc1ccccc1)S(=O)(=O)Cc1ccccc1 [Compound 6]	–	≥ 6.30	≥ 8.30	> 7.00	–

Now from value to compound, other results behind:

pEC50 [6]	Structure (SMILES)	pIC50 [1]	pKi [2]	pEC50 ([5]; MDA-MB-231, 72 hours)	also measured
> 6.00	CN[C@@H](C)C(=O)NC(CCCNC(=O)c1ccc(C(=O)NCCC[C@H](NC(=O)[C@H](C)NC)C(=O)N2CCC[C@H]2CN(CCc2ccccc2)C(=O)C(F)(F)F)cc1)C(=O)N1CCC[C@H]1CN(CCc1ccccc1)C(=O)C(F)(F)F (stereo partly drawn) [Compound 39]	–	–	–	–
> 6.00	CN[C@@H](C)C(=O)NC(CCCNC(=O)CCC(=O)NCCC[C@H](NC(=O)[C@H](C)NC)C(=O)N1CCC[C@H]1CN(CCc1ccccc1)S(=O)(=O)c1ccc(F)cc1)C(=O)N1CCC[C@H]1CN(CCc1ccccc1)S(=O)(=O)c1ccc(F)cc1 (stereo partly drawn) [Compound 40]	–	–	–	–
> 6.00	CN[C@@H](C)C(=O)N[C@@H](CCCNC(=O)CCCC(=O)NCCC[C@H](NC(=O)[C@H](C)NC)C(=O)N1CCC[C@H]1CN(CCc1ccccc1)S(=O)(=O)c1ccc(F)cc1)C(=O)N1CCC[C@H]1CN(CCc1ccccc1)S(=O)(=O)c1ccc(F)cc1 [Compound 43]	–	–	–	–
> 6.00	CN[C@@H](C)C(=O)N[C@@H](CCCNC(=O)C(=O)NCCC[C@H](NC(=O)[C@H](C)NC)C(=O)N1CCC[C@H]1CN(CCc1ccccc1)S(=O)(=O)c1ccc(F)cc1)C(=O)N1CCC[C@H]1CN(CCc1ccccc1)S(=O)(=O)c1ccc(F)cc1 [Compound 41]	–	–	–	–
